Results from patent publication US8586571B2, “Heterocyclic compound” (Takeda Pharmaceutical Company Limited, priority 2007, dated 2013).

Tests used:
human RBP4 = human RBP4 (Homo sapiens (Human), UniProt P02753); assay: Binding assay by Retinol-RBP4-TTR ELISA (human-type ELISA); settings: inhibition of binding of RBP4 with retinol and TTR; retinol 0.5 μM; read-out: human RBP4 binding inhibitory activity (IC50 nM)
Method: The action of the compound of the present invention to inhibit binding of RBP4 and retinol and TTR was evaluated using the Retinol-RBP4-TTR ELISA (human-type ELISA) system shown below.
Binding Assay by Retinol-RBP4-TTR ELISA
This ELISA system detects a complex of retinol, RBP4 and TTR by Streptoavidin-Biotin reaction.
His-tagged human RBP4 used was prepared in the above-mentioned 1C.
Biotinylate human TTR used was prepared in the above-mentioned 1E.
Streptavidin (20 μl) (10 μg/ml Streptavidin type II (Wako Pure Chemical Industries, Ltd.), 10 mM Tris-HCl (pH 7.5), 10 mM NaCl) was added to a 384 well black maxisorp plate (Nunc), and the plate was subjected to centrifugation (1000 rpm, 1 min) and coated overnight at 4° C. The plate was washed twice with PBST (PBS, 0.05% Tween 20, 100 μl/well) and blocked with 25% Block Ace (Snow Brand Milk Products Co., Ltd., PBS, 100 μl/well). The plate was subjected to centrifugation (1000 rpm, 1 min) and incubated at room temperature for 4 hr or overnight at 4° C. The plate was washed twice with PEST (PBS, 0.05% Tween 20, 100 μl/well), and biotinylated human TTR (stock solution concentration 1.3 mg/ml) diluted 1000-fold with PBST was added at 20 μl/well. The plate was subjected to centrifugation (1000 rpm, 1 min) and stood still at room temperature for 1.5 hr or overnight at 4° C. The plate was washed 3 times with PBST (100 μl/well), and His-tagged human RBP4 (stock solution concentration 0.96 mg/ml) diluted 4000-fold with a reaction buffer (50 mM Tris-HCl, 150 mM NaCl, 0.005% Tween 20, 1 mM DTT, 0.1% BSA) was added at 10 μl/well. The dilution series (8 doses from 10 mM, 200-fold concentration) of the compound was prepared with DMSO, and 1 μl of each was added to a reaction buffer (200 μl) containing retinol (0.5 μM) (Sigma-Aldrich Co.). A reaction buffer (200 μl) containing retinol and added with DMSO was used as a positive control, and reaction buffer (200 μl) free of retinol and added with DMSO was used as a negative control. Mixed solutions of retinol and the compound were added to the plate at 15 μl/well. The mixture was stirred in a platemixer subjected to centrifugation (1000 rpm, 1 min) and reacted at room temperature for 2 hr. A 35% Block Ace solution diluted with the reaction buffer was added at 10 μl/well, centrifuged (1000 rpm, 1 min) and reacted at room temperature for 30 min. The plate was washed 3 times with PBST (100 μl/well) and SuperSignal ELISA Femto Maximum Sensitivity Substrate reagent (PIERCE) was added at 30 μl/well, and the luminescence was measured by a platereader (Wallac).
The binding inhibitory rate of the compound was determined by 100×(test compound value-negative control value)/(positive control value-negative control value). The binding activity (IC50) was calculated from the binding inhibitory rate at each compound concentration using a graph drawing software, Prism (GraphPad Software Inc.).

RBP4 = RBP4 (Mus musculus (Mouse), UniProt Q00724); assay: Blood RBP4 lowering action in C57BL/6J mouse (plasma RBP4 by ELISA); type: in vivo; settings: mean±SD (n=5); for RBP4 (% of initial/Control) 4 hr later: 4 hr after single oral 50 mg/kg; for RBP4 (% of initial/Control) 7 hr later: 7 hr after single oral 50 mg/kg; for RBP4 (% of initial/Control) 24 hr later: 24 hr after single oral 50 mg/kg
Method: A blood RBP4 lowering action of the compound of the present invention was evaluated using C57BL/6J mouse.
Male 7- to 15-week-old C57BL/6J mice (Charles River Laboratories Japan Inc.) were individually bred for acclimation for 4-6 days under conditions with free access to CE-2 solid food (CLEA Japan, Inc.), and grouped based on the body weight (5 per group). The next day of grouping, blood samples were collected from the orbital venous plexus, and plasma was separated (0 hr value). Thereafter, the test compounds (Examples 12, 143, 164, 189, 197, 207 and 215) were orally administered at a dose of 50 mg/kg (solvent: 0.5% methylcellulose solution (10 mL/kg)). At 4, 7 and 24 hr after administration of the compounds, blood samples were collected from the orbital venous plexus, and plasma was separated. A 0.5% methylcellulose solution (10 mL/kg) was orally administered to the control group.
The RBP4 level of the collected plasma was measured by ELISA. RBP4 was quantified by the following steps using a rabbit anti-mouse RBP4 polyclonal antibody (Hokudo Co., Ltd). A 96 well ELISA plate was coated with 50 μg/mL of the antibody (100 μL) and stood at 4° C. overnight. After blocking with BlockAce (DAINIPPON PHARMACEUTICAL CO., LTD.), mouse RBP4 or a sample (100 μL) was added and the plate was stood at room temperature for 2 hr. After washing with PBS-0.5% Tween 20, HRP-labeled anti-RBP4 antibody (prepared by labeling RBP4 polyclonal antibody (Hokudo Co., Ltd) with HRP (DOJINDO LABORATORIES)) was added by 100 μL, and the plate was stood at room temperature for 1 hr. After washing, TMB (Dako Cytomations) was added, and the mixture was stood at room temperature for 20 min to allow color development, and the reaction was quenched with 2N sulfuric acid. Thereafter, the absorbance at A450 nm was measured on a platereader. The amount of change from the initial value of each animal was determined as a relative value from the control group (% of initial/Control) at each time point. The results are shown in the following in mean±standard deviation (n=5).

Zucker fa/fa rat = assay: Anti-diabetes action using Zucker fa/fa rat (Takeda Pharmaceutical Company Limited); type: in vivo; settings: oral 30 mg/kg for 2 weeks
Method: An anti-diabetes action and a blood triglyceride (hereinafter TG)-lowering action of the compound of the present invention were evaluated using Zucker fa/fa rats.
Male 7-week-old Zucker fa/fa rats (Takeda Pharmaceutical Company Limited) were bred in group on CE-2 solid food (CLEA Japan, Inc.) until 7-week-old, thereafter bred on high-fat diet D06110702 (LSG Corporation) for acclimation under conditions with free access to food. At 11-week-old, the rats were grouped based on the body weight, blood glucose level, glycated hemoglobin level, blood RBP4 level and blood insulin level value (6 per group). Thereafter, the test compound (Example 143) was orally administered at a dose of 30 mg/kg (solvent: 0.5% methylcellulose solution (5 mL/kg)) for 2 weeks. The next day of the final administration of the compound, blood samples were collected from the tail vein, and plasma was separated. Using the collected plasma, (1) RBP4 concentration and (2) glycated hemoglobin level were measured. (1) was quantified according to the protocol described in Experimental Example 2. (2) was measured using Tosoh Corporation automatic glycohemoglobin analyzer (HLC-723 GHbV A1c2.2 or HLC-723G7 GHbV A1c2.2).
A 0.5% methylcellulose solution (5 mL/kg) was orally administered to the control group. […] The results are shown in the is following in mean±standard deviation (n=6). In the following Table, glycated hemoglobin change is obtained by subtracting the value before administration from that after administration.

SMILES | IC50 (human RBP4) | RBP4 (% of initial/Control) 4 hr later (RBP4) | RBP4 (% of initial/Control) 7 hr later (RBP4) | RBP4 (% of initial/Control) 24 hr later (RBP4) | further results
CC(C)(C)c1cc(F)ccc1OC1CN(C(=O)c2ccccn2)C1 [Example 6, (3-(2-tert-butyl-4-fluorophenoxy)azetidin-1-yl)(pyridin-2-yl)methanone] | 20 nM |  |  |  | 
CC(C)(C)c1ccccc1OC1CN(C(=O)CC(=O)O)C1 [Example 10, 3-(3-(2-tert-butylphenoxy)azetidin-1-yl)-3-oxopropanoic acid] | 36 nM |  |  |  | 
CC(C)(C)c1ccccc1OC1CN(C(=O)C2(C(=O)O)CC2)C1 [Example 14, 1-(3-(2-tert-butylphenoxy)azetidine-1-carbonyl)cyclopropanecarboxylic acid] | 24 nM |  |  |  | 
CC(C)(C)c1ccccc1SC1CN(C(=O)c2ccccn2)C1 [Example 17, (3-(2-tert-butylphenylthio)azetidin-1-yl)(pyridin-2-yl)methanone] | 10 nM |  |  |  | 
CC(C)(C)c1ccccc1S(=O)(=O)C1CN(C(=O)c2ccccc2)C1 [Example 20, (3-(2-tert-butylphenylsulfonyl)azetidin-1-yl)(phenyl)methanone] | 290 nM |  |  |  | 
CC(C)(C)c1ccccc1OC1CCN(C(=O)c2ccccn2)CC1 [Example 50, (4-(2-tert-butylphenoxy)piperidin-1-yl)(pyridin-2-yl)methanone] | 5 nM |  |  |  | 
CC(C)(C)c1cc(F)ccc1OC1CN(C(=O)CCC(=O)O)C1 [Example 80, 4-[3-(2-tert-butyl-4-fluorophenoxy)azetidin-1-yl]-4-oxobutanoic acid] | 20 nM |  |  |  | 
CCCCCS(=O)(=O)NC(=O)C(=O)N1CCC(COc2ccccc2C(C)(C)C)CC1 [Example 121, 2-{4-[(2-tert-butylphenoxy)methyl]piperidin-1-yl}-2-oxo-N-(pentylsulfonyl)acetamide] | 790 nM |  |  |  | 
CC(C)(C)c1cc(F)ccc1OCC1CN(C(=O)CC(=O)O)C1 [Example 143, 3-{3-[(2-tert-butyl-4-fluorophenoxy)methyl]azetidin-1-yl}-3-oxopropanoic acid] | 23 nM | 46.7 ± 6.6 % of initial/Control | 36.2 ± 4.2 % of initial/Control | 45.2 ± 9.1 % of initial/Control | blood RBP4 concentration (result in words) (Zucker fa/fa rat; versus control): significant decrease; glycated hemoglobin (result in words) (Zucker fa/fa rat; versus control): significant decrease; RBP4 (Zucker fa/fa rat; plasma, high-fat diet, mean±SD (n=6)): 7.3 ± 1.2 µg/mL; glycated hemoglobin change(%) (Zucker fa/fa rat; value after minus before administration, mean±SD (n=6)): 0.6 ± 0.4%
CC(C)(C)c1cc(Cl)ccc1OC1CN(C(=O)c2ccccn2)C1 [Example 164, 2-{[3-(2-tert-butyl-4-chlorophenoxy)azetidin-1-yl]carbonyl}pyridine] | 15 nM | 55.6 ± 6.3 % of initial/Control | 46.4 ± 7.2 % of initial/Control | 74.5 ± 8.9 % of initial/Control | 
CC(C)(C)c1cc(Cl)ccc1OC1CN(C(=O)CCC(=O)O)C1 [Example 189, 4-[3-(2-tert-butyl-4-chlorophenoxy)azetidin-1-yl]-4-oxobutanoic acid] | 71 nM | 51.5 ± 1.7 % of initial/Control | 42.1 ± 1.3 % of initial/Control | 69.7 ± 9.6 % of initial/Control | 
CC(C)(C)c1ccccc1OCC1CCN(C(=O)CC(=O)O)C1 (stereo not drawn) [Example 197, 3-{3-[(2-tert-butylphenoxy)methyl]pyrrolidin-1-yl}-3-oxopropanoic acid] | 40 nM | 39.2 ± 1.4 % of initial/Control | 29.2 ± 1.0 % of initial/Control | 40.4 ± 3.0 % of initial/Control | 
CC(C)(C)c1cc(Cl)ccc1OCC1CN(C(=O)C(=O)O)C1 [Example 207, {3-[(2-tert-butyl-4-chlorophenoxy)methyl]azetidin-1-yl}(oxo)acetic acid] | 12 nM | 55.6 ± 1.0 % of initial/Control | 49.0 ± 1.3 % of initial/Control | 69.5 ± 6.6 % of initial/Control | 
CC(C)(C)c1cc(F)ccc1OCC1CCN(C(=O)CC(=O)O)C1 (stereo not drawn) [Example 215, 3-{3-[(2-tert-butyl-4-fluorophenoxy)methyl]pyrrolidin-1-yl}-3-oxopropanoic acid] | 34 nM | 64.3 ± 1.2 % of initial/Control | 60.6 ± 0.6 % of initial/Control | 64.7 ± 4.3 % of initial/Control | 
